The source of these data is ChEMBL document CHEMBL1201862, “PubChem BioAssay data set” (2004).

One experiment deals with T1, Streptokinase A (Streptococcus pyogenes serotype M1, UniProt P10520).
T1 sequence (P10520 whole entry): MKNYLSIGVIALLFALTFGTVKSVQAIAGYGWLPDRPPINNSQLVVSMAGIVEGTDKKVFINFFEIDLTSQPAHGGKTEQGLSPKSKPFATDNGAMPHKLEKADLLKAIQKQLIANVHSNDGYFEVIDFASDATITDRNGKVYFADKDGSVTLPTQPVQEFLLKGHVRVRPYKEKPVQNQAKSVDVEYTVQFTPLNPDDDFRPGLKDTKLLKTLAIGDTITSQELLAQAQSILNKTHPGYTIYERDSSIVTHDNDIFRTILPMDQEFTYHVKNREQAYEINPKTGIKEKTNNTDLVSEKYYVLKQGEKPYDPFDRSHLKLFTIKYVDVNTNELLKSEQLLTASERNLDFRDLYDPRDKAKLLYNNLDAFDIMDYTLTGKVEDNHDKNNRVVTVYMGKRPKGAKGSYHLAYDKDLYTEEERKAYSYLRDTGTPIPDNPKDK
As to the kind of experiment: S. pyogenes streptokinase expression inhibitors, potency, dose response, plasminogen activation absorbance, OD405 (AID 1914).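 Further: secreted streptokinase activity via plasminogen activation per viability signal from cell pellet.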 It is filed as functional, Streptococcus pyogenes M1 GAS.

Experiment [1] relates to Streptococcus sp. 'group A'. As to the kind of experiment: growth inhibition of control SK(-) GAS strain, dose response, counter-screen for streptokinase expression inhibitor project, luminescence, kanamycin, BacTiterGlo, confirmation (AID 1900). In kind it is functional, organism-based. A general note: The purpose of a counterscreen is to sort out artefacts and off-target activity.

Another experiment relates to Streptococcus. The experiment can be described thus: Group A Streptococcus viability loss, dose response, counter-screen for streptokinase expression inhibitor project, luminescence, BacTiterGlo (AID 1915).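 Further: potency for reduction of bacterial viability or growth.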 In kind it is functional, organism-based.
Experiment [2] is described as follows: Luminescence Cell-Based Dose Retest to Confirm Inhibitors of Cancer Stem Cells. [Related pubchem assays (depositor defined):AID2717, AID2721]. It is filed as functional. Particulars: Homo sapiens.
A short description of experiment [3]: HEp-2 cell cytotoxicity, dose response, cytotoxicity control for RSV inhibitor project, HTS (AID 2410). In kind it is functional. Particulars: human respiratory syncytial virus.
A short description of experiment [4]: control 3'UTR Renilla luciferase suppression, dose response, counter-screen for Shn3 inhibitor project, cell-based, Clone20-Shn3RL, cherry-picked (AID 624133). In kind it is functional.
The subject of another experiment is H4. As to the kind of experiment: Luminescence Cell-Based Dose Response HTS to Identify Activators of 5'UTR Stem-Loop Driven Prion Protein mRNA Translation in H4 Neuroglioblastoma Cells. [Related pubchem assays: 1829 (Project Summary), 1814 (Primary HTS)]. The conditions noted are these: Homo sapiens. It is filed as functional.
Experiment [5] is described as follows: Luminescence Cell-Based Dose Response HTS to Identify Activators of Luciferase Translation or Activity in H4 […] Cells. [Related pubchem assays: 1829 (Project Summary), 1814 (Primary HTS)]. In kind it is functional.
Another experiment concerns the target Cytochrome P450 2D6 (Homo sapiens, UniProt P10635).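 Further: CYP2D6 member of a cytochrome P450 panel assay.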
For experiment [6], the target named is T2, Corticotropin-releasing factor receptor 2/Corticotropin-releasing factor-binding protein (Homo sapiens, UniProt P24387+Q13324).
T2 sequence (Q13324 whole entry): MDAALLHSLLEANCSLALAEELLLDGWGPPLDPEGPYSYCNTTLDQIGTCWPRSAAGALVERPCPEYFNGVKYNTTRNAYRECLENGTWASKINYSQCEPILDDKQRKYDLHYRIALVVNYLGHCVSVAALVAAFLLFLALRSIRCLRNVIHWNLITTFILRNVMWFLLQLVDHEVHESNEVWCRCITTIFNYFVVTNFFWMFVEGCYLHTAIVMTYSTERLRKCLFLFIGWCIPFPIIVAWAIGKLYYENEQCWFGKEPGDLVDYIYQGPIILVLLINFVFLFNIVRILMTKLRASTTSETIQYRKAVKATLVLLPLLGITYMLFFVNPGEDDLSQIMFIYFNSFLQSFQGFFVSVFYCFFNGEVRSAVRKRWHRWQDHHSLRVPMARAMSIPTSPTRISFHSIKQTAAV
T2 sequence (P24387 whole entry): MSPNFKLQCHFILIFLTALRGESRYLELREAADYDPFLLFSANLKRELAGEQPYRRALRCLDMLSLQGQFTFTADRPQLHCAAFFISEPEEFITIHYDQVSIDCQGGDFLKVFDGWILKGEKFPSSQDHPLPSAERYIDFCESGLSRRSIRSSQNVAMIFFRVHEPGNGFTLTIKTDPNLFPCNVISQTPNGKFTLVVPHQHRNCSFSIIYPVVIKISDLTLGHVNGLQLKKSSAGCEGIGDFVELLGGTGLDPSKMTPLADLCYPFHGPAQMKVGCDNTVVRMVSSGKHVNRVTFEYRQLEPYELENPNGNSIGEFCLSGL
As to the kind of experiment: activators of CRF receptor 2 with binding protein – uHTS hits, confirmation (AID 602473). It is filed as functional. The conditions noted are these: read-out: EC50_Mean.

Experiment [7] is described as follows: inhibitors of SNCA 5'UTR-driven reporter translation, confirmation, H4 neuroglioma cells, luminescence (AID 1988). It is filed as functional, cell-based.
A short description of experiment [8]: Luminescence Cell-Based Dose Response HTS to Identify Inhibitors of 5'UTR Stem-Loop Driven Prion Protein mRNA Translation in H4 Neuroglioblastoma Cells. [Related pubchem assays: 1827 (Project Summary), 1813 (Primary HTS)]. It is filed as functional.
A short description of experiment [9]: inhibitors of firefly luciferase expression or activity, dose response, H4 neuroglioma cells, luminescence (AID 1990). It is filed as functional, cell-based.
A short description of experiment [10]: cytotoxicity toward NIH3T3 fibroblasts, dose response, counter-screen, cell-based, ATP luminescence, mouse fibroblasts (AID 2010).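 Further: cells exposed to compound for about 90 hours before reading.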 In kind it is functional.
The nature of experiment [11]: inhibitors of intracellular T. cruzi replication, confirmation, NIH3T3 host cells, beta-gal luminescence (AID 2044).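 Further: intracellular parasites grown in NIH/3T3 mouse fibroblasts as host cells; luminescent beta-galactosidase reporter signal from transgenic T. cruzi replicating inside host cells; inhibitors lower the luminescence signal.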 It is filed as functional, cell-based.

Structures are written as SMILES. Activity calls are given as the source filed them. For most assays here, no stated cut-off is given here; in the data, actives have a measured EC50 and inactives only a lower limit.

Cytochrome P450 2D6, sequence (P10635 whole entry): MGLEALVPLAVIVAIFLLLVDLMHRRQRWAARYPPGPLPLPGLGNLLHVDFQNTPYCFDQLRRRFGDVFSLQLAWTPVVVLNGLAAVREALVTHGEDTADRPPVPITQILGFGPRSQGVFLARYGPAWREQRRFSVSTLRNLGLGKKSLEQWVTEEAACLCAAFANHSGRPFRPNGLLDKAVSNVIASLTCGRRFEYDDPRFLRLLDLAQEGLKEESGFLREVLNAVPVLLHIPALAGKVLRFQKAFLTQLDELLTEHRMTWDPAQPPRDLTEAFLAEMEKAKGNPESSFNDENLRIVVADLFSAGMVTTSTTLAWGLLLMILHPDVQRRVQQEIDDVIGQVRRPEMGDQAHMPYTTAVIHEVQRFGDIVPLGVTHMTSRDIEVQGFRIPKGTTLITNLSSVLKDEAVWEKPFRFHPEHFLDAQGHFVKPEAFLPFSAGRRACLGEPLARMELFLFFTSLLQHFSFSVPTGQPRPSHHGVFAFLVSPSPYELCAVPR

With `Clc1ccccc1CN(Cc1ccccc1)c1ncnc2nc[nH]c12`, the EC50 at Streptokinase A was > 150 µM (not active).
`c1ccc(CCNc2nc(-c3ccccn3)cs2)cc1`: the values for the EC50 (in [1]; on Streptokinase A; with Streptococcus) were 7.29 µM (active), > 150 µM (not active) and 14.2 µM (active), respectively.
The term AC50 denotes the concentration at which the activity in the assay is half-maximal. As for `CC(=O)Nc1ccc(-c2csc(NC(=O)Cc3ccccc3F)n2)cc1`, the concentration at half-maximal activity (AC50) in experiment [2] is 9.04 µM (active).
For orientation: CC50 means the concentration that lowers cell viability or growth by half. Turning to `Cc1ccc2c[nH]nc2c1[N+](=O)[O-]`, in experiment [3], the 50% cytotoxic concentration (CC50) was 42.8 µM (active).
Turning to `COc1ccc(-c2nc(N)nc(C)c2Oc2ccccc2Br)c(O)c1`, the concentration at half-maximal activity (AC50) in [2] was 1.96 µM (active).
For `COc1c(C)cc(C(=O)C2CCCN(C(=O)c3cccc(-n4cccn4)c3)C2)cc1C` (configuration not stated), in [4], the AC50 is > 70 µM (inactive).
With `O=C(Nc1ccc(-c2cn3ccsc3n2)cc1)C1CC1`, the EC50 is 4.21 µM (active) in the experiment with H4 and 0.487 µM (active) in experiment [5].
Regarding `O=c1c(-c2ccccc2)coc2cc(O)ccc12` [7-HYDROXY ISOFLAVONE], in experiment [3], the cytotoxic concentration (CC50) is 46.3 µM (active).
The same measure, in the same setting: the value for `CCOC(=O)c1ccc(COC(=O)c2ccc3c(c2)-c2ccccc2C3=O)cc1` was 20.8 µM (active); that for `COc1ccc(-c2cnc(SCC(=O)Nc3nc(C(C)(C)C)cs3)n2Cc2ccco2)cc1` was 9.59 µM (active).
As to `CC(=O)Nc1ccc(C2CC(c3ccc(Cl)cc3)=NN2c2ccccc2)cc1` (configuration not stated), in [3], the CC50 is 47.5 µM (active). Besides, the concentration at half-maximal activity (AC50) in experiment [2] is 1.64 µM (active).
For the compound `O=C(Cn1nc(C(F)F)cc1C(F)F)N/N=C/c1ccc2c(c1)OCO2`, the AC50 at Cytochrome P450 2D6 is 2.82 µM (inconclusive).
Take `CCC(C)Sc1cccc(-c2nc3cc(C)ccn3c2NCc2ccccc2)c1` (configuration not stated): in experiment [2], the AC50 is 5.14 µM (active).
For the compound `CC(C)c1nc(N2CCCC2)c(C#N)c2c1CCCC2`, the EC50 in experiment [1] was 4.2 µM (active); on Streptokinase A, > 150 µM (not active); in the experiment with Streptococcus, 7.01 µM (active).
Take `CC(=O)c1ccc(NC(=S)NC(=O)Cc2ccc(Cl)cc2)cc1`: the EC50 in experiment [6] was 13.2 µM (active).
Turning to `O=[N+]([O-])c1ccc(-c2ccc(/C=N/Nc3nc(N4CCCCC4)nc(N4CCCCC4)n3)o2)cc1`, the EC50 in [6] is 5.96 µM (active).
In the case of `COc1ccc(C2CC(c3ccc(Br)cc3)=NN2C(=O)CSC2=NCCS2)cc1` (configuration not stated), the cytotoxic concentration (CC50) in experiment [3] was 24.1 µM (active).
For the compound `C(=N\Nc1nc(N2CCCCCC2)nc(N2CCCCCC2)n1)/c1ccccc1`, the cytotoxic concentration (CC50) in experiment [3] is 28.4 µM (active).
As for `CC(=O)c1cccc(NC(=S)NC(=O)Cc2ccc(Cl)cc2)c1`, the EC50 in experiment [6] is > 53 µM (inactive).
Consider `CN(C)Cc1ccccc1-c1cc(NCc2ccccc2)ncn1`, for which the concentration at half-maximal activity (AC50) on Cytochrome P450 2D6 is 15.8 µM (inconclusive).
`Cc1ccccc1OCC(=O)Nc1ccccc1N1CCC(C)CC1`: the EC50 is 6.64 µM (active) in experiment [1], 45 µM (active) at Streptokinase A and 11.1 µM (active) with Streptococcus.
Take `Cc1cccc(CNc2cc(-c3cccc(C#N)c3)ncn2)c1`: at Cytochrome P450 2D6, the concentration at half-maximal activity (AC50) was 25.1 µM (inconclusive).
As to `Oc1cccc(Nc2nc(O)c(/C=C3\C=Nc4ccccc43)s2)c1`, the cytotoxic concentration (CC50) in experiment [3] was 15.3 µM (active).
Take `CCC(C)c1ccc(C(C)N=C(S)NC2CCCCC2)cc1` (configuration not stated): the EC50 is 8.05 µM (active) in experiment [1], 146 µM (active) on Streptokinase A and 18.1 µM (active) in the experiment on Streptococcus.
Take `O=C(Nc1ccccc1)N1CCC2(CCNCC2)CC1`: the AC50 at Cytochrome P450 2D6 is 25.1 µM (inconclusive).
`CCOC(=O)c1c(-c2cccs2)csc1NC(=O)CN1CCOCC1`: the EC50 was > 120 µM (not active) in experiment [7], 80.6 µM (active) in experiment [8] and 20.9 µM (active) in [9].
Turning to `Oc1[nH]c2ccc(Br)cc2c1N=NC(S)=Nc1ccc(F)cc1`, the EC50 in experiment [1] was 0.074 µM (active); in experiment [7], 9.77 µM (active); in experiment [8] it was > 120 µM (not active); in experiment [10], 7.03 µM (active); in the experiment with Streptococcus, 1.39 µM (active); in experiment [11], 1.63 µM (active). Moreover, the EC50 in [9] was 15.5 µM (inconclusive).
With `CN(C)/C=C1\SC(=S)N(c2ccc(Br)cc2)C1=O`, the values for the EC50 (in experiment [1]; on Streptokinase A; in the experiment on Streptococcus) were 7.37 µM (active), 17.2 µM (active) and 52.3 µM (active), respectively.
With `O=CNn1cnc2c(oc3nc(-c4ccccc4)cc(-c4ccco4)c32)c1=O`, the CC50 in [3] was 9.82 µM (active).
Take `COc1ccc2[nH]cc(CCNc3ncnc4ccc(-c5cccc(C#N)c5)cc34)c2c1`: the half-maximal activity concentration (AC50) at Cytochrome P450 2D6 is 3.16 µM (inconclusive).
Regarding `CCOc1cc(/C=N/O)cc(Br)c1OCc1ccc(Cl)cc1`, in experiment [2], the AC50 is 3.77 µM (active).
With `CC(C)S(=O)(=O)c1csc(NC(=O)Nc2ccc(Cl)cc2)c1Cl`, the EC50 in experiment [1] is 12.1 µM (active); at Streptokinase A, 74.3 µM (active); in the experiment with Streptococcus it was > 150 µM (not active).
`O=C1C=C(c2cc(C(F)(F)F)cc(C(F)(F)F)c2)C[C@@H](c2ccc(Cl)cc2)C1`: the 50% cytotoxic concentration (CC50) in experiment [3] was 17.3 µM (active).
On to `COc1ccc(C(=O)NC2CCCCCC2)cc1S(=O)(=O)N1CCOCC1`, for which the EC50 (in experiment [1]; at Streptokinase A; in the experiment on Streptococcus) was > 150 µM (not active) in each case.
In the case of `CC(=O)c1cccc(NC(=O)C(=O)Nc2cccc3ccccc23)c1`, the EC50 with H4 was 10.7 µM (active); in [5], 13.3 µM (active).
Turning to `O=C1NC(=O)/C(=C/c2c[nH]c3ccc(Br)cc23)N1`, in experiment [3], the CC50 was 24.8 µM (active).
Consider `CCOC(=O)c1c(NC(=O)/C=C\C(=O)O)sc(C)c1-c1ccccc1`, for which the CC50 in [3] was 19.4 µM (active).
For `O=C(Nc1ccc(OC(F)(F)F)cc1)C1CCCN(S(=O)(=O)c2c[nH]cn2)C1` (configuration not stated), the EC50 (in experiment [1]; on Streptokinase A; in the experiment with Streptococcus) was > 150 µM (not active) in each case.
In the case of `FC(F)(F)c1ccccc1-c1cc(NCc2cccs2)ncn1`, on Cytochrome P450 2D6, the AC50 is 25.1 µM (inconclusive).
Turning to `COc1cc(OC)cc(C(=O)Nc2nc3ccccc3[nH]2)c1`, the EC50 in [1] is 7.14 µM (active); on Streptokinase A, > 150 µM (not active); in the experiment on Streptococcus, > 150 µM (not active).
Consider `OC(CNCCc1ccccc1)COc1ccc(OCC(O)CNCCc2ccccc2)cc1` (configuration not stated), for which the EC50 in experiment [7] was 8.27 µM (active); in [8] it was > 120 µM (not active); in experiment [9], 9.08 µM (active).
